From ChEMBL document CHEMBL5131436, “Dual Sigma-1 receptor antagonists and hydrogen sulfide-releasing compounds for pain treatment: Design, synthesis, and pharmacological evaluation” (Eur J Med Chem, 2022)
In brackets after ≈: the same amount, converted by molar mass. Activity calls are given as the source filed them. The rule behind the calls is not given here.

What was measured:
[1] = Induction of H2S release in PBS buffer incubated for 1 hrs in presence of Washington State Probe-1 by spectrofluorimeter assay; assay type: functional
[2] = molecular target: T1, Sigma intracellular receptor 2 (Rattus norvegicus, UniProt Q5U3Y7); assay: biochemical
T1 sequence (Q5U3Y7 whole entry): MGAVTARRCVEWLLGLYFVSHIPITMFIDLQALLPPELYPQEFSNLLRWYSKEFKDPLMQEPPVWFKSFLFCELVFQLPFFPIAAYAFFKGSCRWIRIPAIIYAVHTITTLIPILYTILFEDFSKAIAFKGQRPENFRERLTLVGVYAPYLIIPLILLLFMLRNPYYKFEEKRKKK

[3] = molecular target: Kappa-type opioid receptor (Cavia porcellus, UniProt P41144); assay: Displacement of [3H]-U69593 from Dunkin-Hartley guinea pig brain membrane kappa opioid receptor incubated for 30 mins by liquid scintillation counting analysis; assay type: cell membranes
Mu-type opioid receptor = Mu-type opioid receptor (Rattus norvegicus, UniProt P33535); assay: Displacement of [3H]-DAMGO from Sprague-Dawley rat brain membrane mu opioid receptor incubated for 45 mins by liquid scintillation counting analysis; assay type: cell membranes
[4] = molecular target: Delta-type opioid receptor (Rattus norvegicus, UniProt P33533); assay: Displacement of [3H]-(2-D-Ala)[Tyrosy1-3,5-]-DELTORPHIN II from Sprague-Dawley rat brain membrane delta opioid receptor incubated for 45 mins by liquid scintillation counting analysis; assay type: cell membranes
[5] = molecular target: T2, Sigma non-opioid intracellular receptor 1 (Cavia porcellus, UniProt Q60492); assay: biochemical
Mus musculus [6] = assay: Analgesic activity in wild type CD1 mouse model of capsaicin-induced mechanical hypersensitivity assessed as reduction of capsaicin-induced mechanical hypersensitivity at 10 to 40 mg/kg, sc; assay type: functional, organism-based; conditions: dose 10-40 mg/kg
Mus musculus [7] = assay: Analgesic activity in wild type CD1 mouse model of capsaicin-induced mechanical hypersensitivity assessed as reduction of capsaicin-induced mechanical hypersensitivity at 40 mg/kg, sc in presence of sigma1 receptor agonist PRE-084; assay type: functional, organism-based
Mus musculus [8] = assay: Antinociceptive activity in sc dosed wild type CD1 mouse model of capsaicin-induced mechanical hypersensitivity assessed as reduction in mechanical hypersensitivity; assay type: functional
Mus musculus [9] = assay: Antinociceptive activity in wild type CD1 mouse model of capsaicin-induced mechanical hypersensitivity assessed as reduction in mechanical hypersensitivity at 10 mg/kg, sc in presence of Sigma 1 receptor agonist PRE-084; assay type: functional, organism-based
Mus musculus [10] = assay: Analgesic activity in wild type CD1 mouse model of capsaicin-induced mechanical hypersensitivity assessed as reduction in mechanical hypersensitivity at 5 mg/kg, sc in presence of sigma-1 receptor antagonist BD-1063 at 5 mg/kg; assay type: functional
[11] = Induction of motor coordination impairment in wild type CD1 mouse assessed as latency to fall at 5 mg/kg, sc in presence of sigma-1 receptor […] BD-1063 at 5 mg/kg, sc measured upto 4 hrs by rotarod test; assay type: toxicity, organism-based; conditions: in vivo
Mus musculus [12] = assay: Analgesic activity in wild type CD1 mouse model of capsaicin-induced mechanical hypersensitivity assessed as reduction in mechanical hypersensitivity at 5 mg/kg, sc in presence of BD-1063 at 5 mg/kg and PRE-084 at 32 mg/kg; assay type: functional, organism-based
[13] = Induction of H2S release in PBS buffer at 100 uM in presence of Washington State Probe-1 by spectrofluorimeter assay; assay type: functional
[14] = molecular target: Sigma non-opioid intracellular receptor 1 (Homo sapiens, UniProt Q99720); assay: Displacement of [3H]-pentazocine from Sigma 1-receptor (unknown origin)
[15] = molecular target: Sigma intracellular receptor 2 (Homo sapiens, UniProt Q5BJF2); assay: Displacement of [3H]-di-o-tolylguanidine from Sigma 2-receptor (unknown origin)
hERG (KCNH2) = hERG (KCNH2) (Homo sapiens, UniProt Q12809); assay: Inhibition of human ERG potassium channel expressed in CHO-K1 cells at 10 uM by Qube-automated patch clamp assay relative to control; assay type: toxicity, cell-based; conditions: CHO-K1 cells expressing human ERG potassium channel
[16] = Stability of compound in saline solution assessed as half life by UHPLC-PDA analysis; assay type: physicochemical
[17] = Aqueous solubility of compound at 5 mg measured for 24 hrs by UHPLC-PDA analysis; assay type: physicochemical; conditions: water
[18] = Induction of motor coordination impairment in wild type CD1 mouse assessed as latency to fall at 40 mg/kg, sc measured upto 4 hrs by rotarod test; assay type: toxicity, organism-based; conditions: in vivo
[19] = Stability of compound in phosphate buffer at pH 7.4 assessed as half life by UHPLC-PDA analysis; assay type: physicochemical
[20] = Induction of hypotension in wild type CD1 mouse assessed as mean arterial blood pressure at 30 to 40 mg/kg, sc incubated upto 45 mins by tail-cuff plethysmography; assay type: toxicity, organism-based; conditions: in vivo, 0.75 h, dose 30-40 mg/kg
[21] = molecular target: Voltage-gated inwardly rectifying potassium channel KCNH2 (Homo sapiens, UniProt Q12809); assay: Inhibition of human ERG potassium channel expressed in CHO-K1 cells by Qube-automated patch clamp assay; assay type: toxicity, cell-based
[22] = molecular target: T2, Sigma non-opioid intracellular receptor 1

T2 sequence (Q60492 whole entry): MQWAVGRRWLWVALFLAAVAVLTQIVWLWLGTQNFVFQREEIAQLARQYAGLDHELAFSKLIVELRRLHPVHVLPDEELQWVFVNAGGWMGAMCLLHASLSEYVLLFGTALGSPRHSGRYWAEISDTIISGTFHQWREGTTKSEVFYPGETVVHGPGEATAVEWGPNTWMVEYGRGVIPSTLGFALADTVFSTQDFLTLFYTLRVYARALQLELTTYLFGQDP
Chain of Mu-type opioid receptor (P33535 whole entry): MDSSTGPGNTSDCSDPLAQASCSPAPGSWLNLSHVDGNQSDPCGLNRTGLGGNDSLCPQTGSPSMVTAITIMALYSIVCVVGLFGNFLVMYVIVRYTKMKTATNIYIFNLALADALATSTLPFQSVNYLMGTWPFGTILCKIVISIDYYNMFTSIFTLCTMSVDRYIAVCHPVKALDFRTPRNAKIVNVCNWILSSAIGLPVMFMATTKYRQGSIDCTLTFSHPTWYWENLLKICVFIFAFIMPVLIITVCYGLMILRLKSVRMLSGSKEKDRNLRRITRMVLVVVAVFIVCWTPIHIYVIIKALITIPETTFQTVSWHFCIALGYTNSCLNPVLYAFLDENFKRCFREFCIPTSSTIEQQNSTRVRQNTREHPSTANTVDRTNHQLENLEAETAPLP
Chain of Delta-type opioid receptor (P33533 whole entry): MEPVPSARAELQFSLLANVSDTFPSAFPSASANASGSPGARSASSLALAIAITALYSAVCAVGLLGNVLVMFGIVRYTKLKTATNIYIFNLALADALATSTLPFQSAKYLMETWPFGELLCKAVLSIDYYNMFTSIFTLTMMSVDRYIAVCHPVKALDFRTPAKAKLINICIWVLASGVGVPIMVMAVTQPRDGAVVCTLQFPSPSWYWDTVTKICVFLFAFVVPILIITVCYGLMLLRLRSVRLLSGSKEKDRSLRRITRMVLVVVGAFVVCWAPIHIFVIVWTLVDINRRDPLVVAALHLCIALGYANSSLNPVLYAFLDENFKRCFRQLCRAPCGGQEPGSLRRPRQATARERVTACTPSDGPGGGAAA
Chain of Kappa-type opioid receptor (P41144 whole entry): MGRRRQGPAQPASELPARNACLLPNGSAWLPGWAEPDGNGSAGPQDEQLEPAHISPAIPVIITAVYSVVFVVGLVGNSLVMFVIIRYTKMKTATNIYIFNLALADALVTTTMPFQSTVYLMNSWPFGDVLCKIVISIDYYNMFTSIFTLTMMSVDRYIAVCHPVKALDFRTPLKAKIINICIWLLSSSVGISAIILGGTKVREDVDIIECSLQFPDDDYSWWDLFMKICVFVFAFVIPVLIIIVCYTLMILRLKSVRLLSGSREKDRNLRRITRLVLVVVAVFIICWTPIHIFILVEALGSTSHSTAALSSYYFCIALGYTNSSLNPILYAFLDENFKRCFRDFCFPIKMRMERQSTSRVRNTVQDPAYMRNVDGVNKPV
Chain of hERG (KCNH2) (Q12809 whole entry): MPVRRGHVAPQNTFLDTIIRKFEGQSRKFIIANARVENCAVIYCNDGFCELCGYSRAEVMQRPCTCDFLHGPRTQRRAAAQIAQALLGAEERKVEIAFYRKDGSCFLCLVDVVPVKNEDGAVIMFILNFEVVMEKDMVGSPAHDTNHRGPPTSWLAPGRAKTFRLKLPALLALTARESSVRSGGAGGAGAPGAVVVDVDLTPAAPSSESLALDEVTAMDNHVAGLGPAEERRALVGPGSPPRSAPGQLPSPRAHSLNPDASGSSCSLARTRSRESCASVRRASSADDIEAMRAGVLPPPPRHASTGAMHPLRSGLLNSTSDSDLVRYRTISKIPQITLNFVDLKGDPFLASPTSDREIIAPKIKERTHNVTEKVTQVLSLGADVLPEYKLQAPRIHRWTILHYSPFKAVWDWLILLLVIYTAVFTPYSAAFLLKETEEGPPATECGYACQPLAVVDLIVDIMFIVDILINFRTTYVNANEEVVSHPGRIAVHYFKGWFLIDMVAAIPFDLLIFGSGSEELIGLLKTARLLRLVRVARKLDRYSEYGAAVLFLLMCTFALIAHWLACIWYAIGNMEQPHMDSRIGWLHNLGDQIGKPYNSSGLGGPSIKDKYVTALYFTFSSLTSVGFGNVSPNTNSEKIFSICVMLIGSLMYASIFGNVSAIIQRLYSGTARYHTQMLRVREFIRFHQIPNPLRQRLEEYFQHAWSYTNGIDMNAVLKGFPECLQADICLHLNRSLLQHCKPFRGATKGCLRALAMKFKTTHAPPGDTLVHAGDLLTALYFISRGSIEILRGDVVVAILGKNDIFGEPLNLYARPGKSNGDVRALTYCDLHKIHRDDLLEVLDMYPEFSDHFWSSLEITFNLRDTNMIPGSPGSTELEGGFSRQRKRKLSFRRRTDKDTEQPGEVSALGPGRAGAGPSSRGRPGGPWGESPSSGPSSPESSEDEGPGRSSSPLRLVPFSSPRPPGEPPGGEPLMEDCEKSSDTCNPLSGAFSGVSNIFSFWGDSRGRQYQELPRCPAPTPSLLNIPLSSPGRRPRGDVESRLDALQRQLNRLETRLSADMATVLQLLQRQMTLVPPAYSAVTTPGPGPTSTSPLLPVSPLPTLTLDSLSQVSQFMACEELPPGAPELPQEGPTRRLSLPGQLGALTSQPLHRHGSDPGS
Chain of Voltage-gated inwardly rectifying potassium channel KCNH2 (Q12809 whole entry): as above
Chain of Sigma non-opioid intracellular receptor 1 (Homo sapiens, UniProt Q99720) (Q99720 whole entry): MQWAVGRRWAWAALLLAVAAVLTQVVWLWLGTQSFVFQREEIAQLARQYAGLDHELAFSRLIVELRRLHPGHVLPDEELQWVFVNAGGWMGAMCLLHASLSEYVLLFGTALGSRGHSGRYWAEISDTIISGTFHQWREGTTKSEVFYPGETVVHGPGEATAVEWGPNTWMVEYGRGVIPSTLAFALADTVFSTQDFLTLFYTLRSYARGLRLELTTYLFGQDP
Chain of Sigma intracellular receptor 2 (Homo sapiens, UniProt Q5BJF2) (Q5BJF2 whole entry): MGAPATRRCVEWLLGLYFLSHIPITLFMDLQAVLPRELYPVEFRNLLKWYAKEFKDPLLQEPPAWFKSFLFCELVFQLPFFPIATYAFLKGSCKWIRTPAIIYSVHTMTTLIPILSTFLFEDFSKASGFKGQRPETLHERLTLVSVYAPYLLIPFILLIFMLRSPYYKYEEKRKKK

| SMILES | Activity [1] [µM] | Ki [2] [nM] | Ki [3] [nM] | Ki (Mu-type opioid receptor) [nM] | Ki [4] [nM] | Ki [5] [nM] | further results |
| --- | --- | --- | --- | --- | --- | --- | --- |
| NC(=S)c1ccc(C(=O)OCCCCN2CCC(O)(c3ccc(Cl)cc3)CC2)cc1 | 41.8 | 266 | > 10000 | > 10000 | > 10000 | 58 |  |
| Oc1ccc2c3c1O[C@H]1c4[nH]c5ccccc5c4C[C@@]4(O)[C@@H](C2)N(CC2CC2)CC[C@]314 [NALTRINDOLE] |  |  |  |  | 2.53 |  |  |
| NC(=S)c1ccc(C(=O)N2CCN(Cc3ccccc3)CC2)cc1 | 46.7 | > 10000 | > 10000 | > 10000 | > 10000 | 668 | Activity (Mus musculus [6]; DDE = dose-dependent effect): Dde; Activity (Mus musculus [7]): Active |
| NC(=O)c1ccc(C(=O)O)cc1 |  | > 10000 | > 10000 | > 10000 | > 10000 | > 10000 |  |
| NC(=S)c1ccc(C(=O)O)cc1 | 34.4 |  | > 10000 | > 10000 | > 10000 |  | ED50 (Mus musculus [8]): 6.12 mg/kg; Activity (Mus musculus [9]): Active; ED50 (Mus musculus [10]): 7.52 mg/kg; ED75 (Mus musculus [10]): 9.75 mg/kg; ED90 (Mus musculus [10]): 12.6 mg/kg; Activity [11]: Non-Toxic; Activity (Mus musculus [12]): Active; Activity [13]: Active |
| O=C(NC1CCN(Cc2ccccc2)CC1)c1ccc(F)cc1 |  |  |  |  |  | 6 | Ki [14]: 6 nM; Ki [15]: 190 nM |
| C[C@@H]1CCO[C@H]2Cn3cc(C(=O)NCc4ccc(F)cc4F)c(=O)c(O)c3C(=O)N12 [DOLUTEGRAVIR] |  | 18 |  |  |  | 124 |  |
| NC(=O)c1ccc(C(=O)OCCCCN2CCC(O)(c3ccc(Cl)cc3)CC2)cc1 |  | 933 | > 10000 | > 10000 | > 10000 | 126 |  |
| NC(=O)c1ccc(C(=O)OC(CCCN2CCC(O)(c3ccc(Cl)cc3)CC2)c2ccc(F)cc2)cc1 (stereo not drawn) |  | 618 | > 10000 | 817 | > 10000 | 173 |  |
| NC(=S)c1ccc(C(=O)NC2CCN(Cc3ccccc3)CC2)cc1 | 38.4 |  | > 10000 | > 10000 | > 10000 |  | inhibition at 10 µM (hERG (KCNH2)): 60%; half-life [16]: 4.17 h; solubility at 24 h [17]: 1.25 µM (≈ 0.442 µg/mL); Activity [18]: Non-Toxic; half-life [19]: 1.55 h; Activity [20]: Non-Toxic; IC50 [21]: 6800 nM; Activity (Mus musculus [6]): Active; Activity (Mus musculus [7]): Active |
| NC(=O)c1ccc(C(=O)N2CCN(Cc3ccccc3)CC2)cc1 |  | > 10000 | > 10000 | 2550 | > 10000 | > 5000 | Activity (Mus musculus [6]): Active; Activity (Mus musculus [7]): Active |
| CN1CCN(CCc2ccc(Cl)c(Cl)c2)CC1 |  |  |  |  |  |  | Ki [22]: 14 nM; ED50 (Mus musculus [8]): 10.3 mg/kg |
| NC(=O)c1ccc(C(=O)NC2CCN(Cc3ccccc3)CC2)cc1 |  |  | > 10000 | > 10000 | > 10000 |  |  |
| NC(=S)c1ccc(C(=O)OC(CCCN2CCC(O)(c3ccc(Cl)cc3)CC2)c2ccc(F)cc2)cc1 (stereo not drawn) | 51.7 | 311 | > 10000 | 1460 | > 10000 | 156 |  |
